Test results: US10323028B2, “1,3,4-thiadiazole compounds and their use in treating cancer” (AstraZeneca AB, priority 2015, dated 2019)
Like-named read-outs stand apart in the source and are kept apart here.

Key:
[1] = molecular target: cellular GLS activity in PC3 cells (Homo sapiens (Human), UniProt O94925); assay: GLS Cell Potency Assay (PC3 coupled assay measuring cellular glutamate depletion); assay type: cell-based; settings: PC3 cells, 6 h incubation, glutamate depletion; read-out: Assay b) GLS cell MOA Mean IC50
cellular GLS activity in PC3 cells, sequence (O94925 73-669): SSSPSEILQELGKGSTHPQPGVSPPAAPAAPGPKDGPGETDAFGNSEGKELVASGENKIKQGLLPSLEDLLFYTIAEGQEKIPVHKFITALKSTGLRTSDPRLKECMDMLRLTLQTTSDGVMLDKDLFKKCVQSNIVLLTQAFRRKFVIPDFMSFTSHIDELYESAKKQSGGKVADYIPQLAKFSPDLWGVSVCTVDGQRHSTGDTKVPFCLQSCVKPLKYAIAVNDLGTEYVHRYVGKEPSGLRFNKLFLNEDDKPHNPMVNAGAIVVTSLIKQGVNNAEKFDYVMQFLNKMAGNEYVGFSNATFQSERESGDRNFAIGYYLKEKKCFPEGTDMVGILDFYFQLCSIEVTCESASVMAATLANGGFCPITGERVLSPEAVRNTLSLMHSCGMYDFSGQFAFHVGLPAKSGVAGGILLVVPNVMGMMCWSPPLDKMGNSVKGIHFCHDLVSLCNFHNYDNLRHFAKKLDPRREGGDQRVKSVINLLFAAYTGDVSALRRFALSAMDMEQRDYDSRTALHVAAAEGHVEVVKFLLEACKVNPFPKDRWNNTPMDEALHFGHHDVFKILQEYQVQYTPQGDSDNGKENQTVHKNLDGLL
Text: (§1) The following assays were used to measure the effects of the compounds described herein: a) GLS Enzyme Potency Assay; b) GLS Cell Potency Assay; c) GLS Cell Proliferation Assay. During the description of the assays, generally: • i. The following abbreviations have been used: CO2=Carbon dioxide; DMEM=Dulbecco's Modified Eagle Medium; DMSO=Dimethyl sulphoxide; EDTA=Ethylenediaminetetraacetic acid; EGTA=Ethylene glycol tetraacetic acid; FCS=Foetal calf serum; h=Hour(s); NBS=Non-binding surface; SDS=Sodium dodecyl sulphate; TRIS=Tris(Hydroxymethyl)aminomethane. • ii. IC50 values were calculated using a smart fitting model in Genedata.
Assay b): GLS Cell Potency Assay
Compounds were assessed for their potential to inhibit cellular GLS activity by use of a PC3 coupled assay measuring cellular glutamate depletion. […] DMSO concentration was maintained at 0.3% by back filling with DMSO solution. PC3 cells were grown in phenol free DMEM, 10% dialyzed FCS, 2 mM glutamine and following dispersal by trypsinisation were plated at 5.6×10^3 cells per well in 40 μl of growth medium directly into the 384 well assay plates containing dispensed compound. After incubation for 6 h at 37° C., 5% CO2 growth media was aspirated and cells lysed in 15 μl of buffer containing 10 mM TRIS pH7.4, 100 mM NaCl, 1 mM EDTA, 1 mM EGTA, 1 mM NaF, 20 mM Na4P2O7, 2 mM Na3VO4, 1% Triton X-100, 10% glycerol, 0.1% SDS and 0.5% deoxycholate.

GLS1 = GLS1 (Homo sapiens (Human), UniProt O94925); assay: GLS Enzyme Potency Assay (Glutamate Oxidase/AmplexRed coupled assay); assay type: biochemical
GLS1, sequence (O94925 63-669): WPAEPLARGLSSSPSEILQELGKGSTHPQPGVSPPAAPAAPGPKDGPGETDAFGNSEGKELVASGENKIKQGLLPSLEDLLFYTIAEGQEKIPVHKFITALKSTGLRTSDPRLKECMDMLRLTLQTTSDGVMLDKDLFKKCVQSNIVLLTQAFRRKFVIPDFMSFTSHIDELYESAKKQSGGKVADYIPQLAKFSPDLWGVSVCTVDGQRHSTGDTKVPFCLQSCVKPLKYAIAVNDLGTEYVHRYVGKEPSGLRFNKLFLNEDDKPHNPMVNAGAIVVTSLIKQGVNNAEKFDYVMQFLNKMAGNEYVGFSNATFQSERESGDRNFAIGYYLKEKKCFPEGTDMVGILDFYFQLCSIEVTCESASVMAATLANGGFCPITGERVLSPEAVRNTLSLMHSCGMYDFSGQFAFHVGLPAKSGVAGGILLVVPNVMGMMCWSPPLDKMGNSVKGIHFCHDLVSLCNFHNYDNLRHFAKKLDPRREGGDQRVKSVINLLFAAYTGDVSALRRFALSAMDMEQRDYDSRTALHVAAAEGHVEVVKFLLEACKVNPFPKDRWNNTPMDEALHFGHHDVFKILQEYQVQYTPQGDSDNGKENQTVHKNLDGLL
Text: as §1
Assay a): GLS Enzyme Potency Assay
A Glutamate Oxidase/AmplexRed coupled assay was used to measure the ability of compounds to bind to and inhibit the activity of GLS1 in vitro. […] GLS1 was diluted to 2× working concentration and incubated at room temperature to allow the tetrameric/dimeric forms to reach steady state. Assay measurements were performed in buffer comprising 50 mM TRIS pH 7.8, 100 mM NaPO4, pH 7.8, 0.001% v/v Tween20. Purified recombinant GLS1 protein was diluted in assay buffer to 12 nM and pre-incubated at room temperature for 30 minutes. […] DMSO concentration was maintained at 2% by back filling with DMSO solution. 3 μL of diluted GLS1 protein (12 nM) was then dispensed into each well using a BioRaptr automated dispenser (Beckman-Coulter) and incubated for 15 minutes at room temperature. 3 μL of 100 mM glutamine diluted in assay buffer was then added and the reaction incubated at room temperature for 60 minutes. […] An artefact version of the assay where the 6His tagged GLS protein and glutamine were replaced with assay buffer was also used to rule out non specific effects on the assay components.

NCI-H1703 cells = assay: GLS Cell Proliferation Assay (NCI-H1703 cell proliferation); assay type: cell-based
Text: as §1
Assay c): GLS Cell Proliferation Assay
The ability of compounds to inhibit cell growth was measured using a 384 well plate NCI-H1703 cell proliferation assay. NCI-H1703 cells were grown in phenol red free RPMI1640, 10% FCS and 2 mM glutamine and seeded at a density of 750 cells per well in 40 μl of growth medium into clear-bottom 384 well assay plates (Corning product code 3712) and incubated for 24 h at 37° C., 5% CO2. […] DMSO concentration was maintained at 0.3% by back filling with DMSO solution. Plates were incubated for 5 days at 37° C., 5% CO2, Sytox Green and Saponin added to final concentration of 2 μM and 0.25% respectively and incubated for 6 h prior to analysis. […] IC50 values were calculated by curve fitting to max inhibition of day zero growth using GeneData software analysis.

[2] = 6His tagged GLS protein (amino acids 63-669), recombinant; read-out: Assay a) enz IC50
[3] = NCI-H1703 cells, 5 days; read-out: Assay c) Prolif Mean IC50
[4] = Homo sapiens, NCI-H1703, 120 h, NCI-H1703 cells, 5 days; read-out: Assay c) Prolif Mean IC50

Compound	IC50 [1] [nM]	IC50 (GLS1; read-out: Assay a) enz IC50) [nM]	IC50 (GLS1; [2]) [nM]	IC50 (NCI-H1703 cells; [3]) [nM]	IC50 (NCI-H1703 cells; [4]) [nM]
COC[C@H](C(=O)Nc1nnc(N[C@@H]2CCN(c3ccc(C)nn3)C2)s1)c1ccccc1 (single isomer, unassigned) [45(b)]	11.3	146			
CO[C@H](C(=O)Nc1nnc(N[C@@H]2CCN(c3cccnn3)C2)s1)c1cccc(N2CC(F)C2)c1 (single isomer, unassigned) [Example 1(a)]	0.83		20.6		
CO[C@H](C(=O)Nc1nnc(N[C@@H]2CCN(c3cccnn3)C2)s1)c1cccc(N2CC(F)C2)c1 (single isomer, unassigned) [Example 1(b)]	18.4	72.6			
COC(C(=O)Nc1nnc(N[C@@H]2CCN(c3nccnn3)C2)s1)c1cccc(C2COC2)c1 (single isomer, unassigned) [Example 24]	3.48		52.6	29.1	
COC(C(=O)Nc1nnc(N[C@@H]2CCN(c3nccnn3)C2)s1)c1cccc(C2COC2)c1 (single isomer, unassigned) [Example 25]	86.1		1840	831	
COC(C(=O)Nc1nnc(N[C@@H]2CCN(c3ccc(F)nn3)C2)s1)c1cccc(N2CC(F)C2)c1 (single isomer, unassigned) [Example 27]	1.4		149	13.5	
COC(C(=O)Nc1nnc(N[C@@H]2CCN(c3ccc(F)nn3)C2)s1)c1cccc(N2CC(F)C2)c1 (single isomer, unassigned) [Example 28]	51.5		195	262	
CCOC(C(=O)Nc1nnc(N[C@@H]2CCN(c3cccnn3)C2)s1)c1cccc(N2CC(F)(F)C2)c1 (single isomer, unassigned) [Example 29]	0.404		51.1	1.96	
CCOC(C(=O)Nc1nnc(N[C@@H]2CCN(c3cccnn3)C2)s1)c1cccc(N2CC(F)(F)C2)c1 (single isomer, unassigned) [Example 30]	3.22		1370	37.7	
CCOC(C(=O)Nc1nnc(N[C@@H]2CCN(c3cccnn3)C2)s1)c1cccc(N2CC(F)C2)c1 (single isomer, unassigned) [Example 31]	0.573		96.8	3.21	
COC(C(=O)Nc1nnc(N[C@@H]2CCN(c3ccc(C)nn3)C2)s1)c1cccc(N2CC(F)C2)c1 (single isomer, unassigned) [Example 35]	1.21		77	9.03	
COC(C(=O)Nc1nnc(N[C@@H]2CCN(c3ccc(C)nn3)C2)s1)c1cccc(N2CC(F)C2)c1 (single isomer, unassigned) [Example 36]	21.8		612	394	
COc1cc(OC)cc(C(OC)C(=O)Nc2nnc(N[C@@H]3CCN(c4cccnn4)C3)s2)c1 (single isomer, unassigned) [Example 43]	0.292		20	2.24	
COc1cc(OC)cc(C(OC)C(=O)Nc2nnc(N[C@@H]3CCN(c4cccnn4)C3)s2)c1 (single isomer, unassigned) [Example 44]	8.85		48.2	59.1	
COc1cc(OC)cc([C@H](OC)C(=O)Nc2nnc(N[C@@H]3CCN(c4cccnn4)C3)s2)c1 [Example 21(a), (2S)-2-(3,5-Dimethoxyphenyl)-2-methoxy-N-[5-[[(3R)-1-pyridazin-3-ylpyrrolidin-3-yl]amino]-1,3,4-thiadiazol-2-yl]acetamide]	0.292		20		2.24
COc1cc(OC)cc([C@@H](OC)C(=O)Nc2nnc(N[C@@H]3CCN(c4cccnn4)C3)s2)c1 [Example 21(b), (2R)-2-(3,5-Dimethoxyphenyl)-2-methoxy-N-[5-[[(3R)-1-pyridazin-3-ylpyrrolidin-3-yl]amino]-1,3,4-thiadiazol-2-yl]acetamide]	8.85		48.2		59.1
CCO[C@@H](C(=O)Nc1nnc(N[C@@H]2CCN(c3cccnn3)C2)s1)c1cccc(N2CC(OC)C2)c1 [Example 22(b), (2R)-2-ethoxy-2-[3-(3-methoxyazetidin-1-yl)phenyl]-N-[5-[[(3R)-1-pyridazin-3-ylpyrrolidin-3-yl]amino]-1,3,4-thiadiazol-2-yl]acetamide]	10.6				178
COc1cc(OC)cc(C(OC)C(=O)Nc2nnc(N[C@@H]3CCN(c4cccnn4)C3)s2)c1 (stereo partly drawn) [Example 23, 2-(3,5-dimethoxyphenyl)-2-methoxy-N-[5-[[(3R)-1-pyridazin-3-ylpyrrolidin-3-yl]amino]-1,3,4-thiadiazol-2-yl]acetamide]	8.85		48.2		59.1
COc1cc(OC)cc(C(OC)C(=O)Nc2nnc(N[C@@H]3CCN(c4ccc(F)nn4)C3)s2)c1 (stereo partly drawn) [Example 26, 2-(3,5-dimethoxyphenyl)-N-[5-[[(3R)-1-(6-fluoropyridazin-3-yl)pyrrolidin-3-yl]amino]-1,3,4-thiadiazol-2-yl]-2-methoxy-acetamide]	0.334		23.5		4.2
CCOC(C(=O)Nc1nnc(N[C@@H]2CCN(c3cccnn3)C2)s1)c1cccc(N2CC(OC)C2)c1 (stereo partly drawn) [Example 34, 2-ethoxy-2-[3-(3-methoxyazetidin-1-yl)phenyl]-N-[5-[[(3R)-1-pyridazin-3-ylpyrrolidin-3-yl]amino]-1,3,4-thiadiazol-2-yl]acetamide]	10.6			18	
COC(C(=O)Nc1nnc(N[C@@H]2CCN(c3cccnn3)C2)s1)c1ccc(F)c(N2CC(F)(F)C2)c1 (stereo partly drawn) [Example 37, 2-[3-(3,3-difluoroazetidin-1-yl)-4-fluoro-phenyl]-2-methoxy-N-[5-[[(3R)-1-pyridazin-3-ylpyrrolidin-3-yl]amino]-1,3,4-thiadiazol-2-yl]acetamide]	0.556		147	21.1	
COC(C(=O)Nc1nnc(N[C@@H]2CCN(c3ccc(C)nn3)C2)s1)c1cccc(N2CC(F)(F)C2)c1 (stereo partly drawn) [Example 39, 2-[3-(3,3-difluoroazetidin-1-yl)phenyl]-2-methoxy-N-[5-[[(3R)-1-(6-methylpyridazin-3-yl)pyrrolidin-3-yl]amino]-1,3,4-thiadiazol-2-yl]acetamide]	0.405		130	5.94	
